Test results published in patent publication US20100062993A1, “Adenosine Nucleotides as Dietary Supplements and as Agents in the Prevention of Cancer and the Metastasis Thereof” (priority 2008, published 2010).

System: human cancer cell linings
Assay: Mice implanted with human cancer (tumor) cell linings: efficacy of MTA relative to SAMe
Format: in vivo
Text: It is therefore astonishing that MTA, in experimental results on mice implanted with tumor cell linings, was 10 times more efficacious than SAMe. Part of the pharmacodynamics is surely that MTA is toxic to many cancer cells that are deficient in the enzymes that are needed to process it. Yet this 10:1 efficacy ratio is inexplicable under the above suppositions!
This is extremely surprising in light of the above!

SMILES: CSC[C@H]1O[C@@H](n2cnc3c(N)ncnc32)[C@H](O)[C@@H]1O [MTA, 5-deoxy-5-methylthioadenosine]
- efficacy relative to SAMe (mice implanted with human cancer cell linings, ratio versus SAMe): more than 10 fold
- efficacy of MTA relative to SAMe (times more efficacious) (mice implanted with tumor cell linings, ratio versus SAMe (10:1)): 10 times
